Measured values published in patent US12226414B2, “1-isopropyl-3-methyl-8-(pyridin-3-yl)-1,3-dihydro-2H-imidazo[4,5-c] cinnolin-2-one as selective modulators of ataxia telangiectasia mutated (ATM) kinase and uses thereof” (SUZHOU ZANRONG PHARMA LIMITED, priority 2018, dated 2025).

Experiments:
ATM = ATM (Homo sapiens (Human), UniProt Q13315); experiment: ATM biochemical potency assay
Protocol: The plate was incubated at room temperature for 10 minutes. […] Data was collected by Caliper.

ATR = ATR (Homo sapiens (Human), UniProt Q13535); experiment: ATR biochemical potency assay
Protocol: ATR enzyme was made by ChemPartner (batch: CP-ATR-20161102-M2). 2× enzyme solutions were prepared in 1× kinase base buffer. 10 μl of 2× enzyme solution (final concentration: 2.5 nM) was added to each well of the 384-well assay plate containing 60 nl compound in each well. The plate was incubated at room temperature for 10 minutes. 2× peptide solutions were prepared with FAM-labeled peptide and ATP in the 1× kinase base buffer. 10 μl of 2× peptide solution was added to each well of the 384-well assay plate, which was incubated at 28° C. for 240 min. 40 μl of stop buffer was added to stop reaction. Data were collected by Caliper.

PI3Kα (p110α/p85a) = PI3Kα (p110α/p85a) (Homo sapiens (Human), UniProt P42336); experiment: PI3K biochemical potency assay (PI3Kα)
Protocol: (§1) PI3Kα (p110α/p85a), PIK3C δ, PIK3Cβ (p110β), PIK3Cγ (pp110γ) kinase reaction solutions of PI3Kα (Invitrogen, Cat. No. PV4788), PIK3Cδ (Invitrogen, Cat. No. PV6452), PIK3Cβ (Millipore, Cat. No. 14-603-K), PIK3Cγ (Invitrogen, Cat. No. PR8641C) enzymes were prepared in 1× kinase buffer at 4-fold of the final concentration (final concentration: PI3Kα 0.7 nM, PIK3Cδ 3 nM, PIK3Cβ 4.8 nM, PIK3Cγ 11 nM) of each reagent in the assay. 2.5 μl of kinase solution was added to each well of the 384-well assay plate, which contains 2.5 μl of compounds with serially diluted concentration. 2× substrate solution was prepared with PIP2 substrate and ATP in 1× kinase reaction buffer at 2-fold of the final concentration of each reagent in the assay. 5 μl of substrate solution was added to each well of the assay plate to start reaction. The assay plate was incubated at room temperature for 1 hour. 5 μl reaction mix was transferred to a new 384 well plate. 5 μl of ADP-Glo reagent (Promega, Cat. No. v9102/3, Lot. No. 0000176563) was added to each well of the new assay plate to stop the reaction. The plate was shaken slowly and equilibrated for 40 minutes. 10 μl kinase detection reagents was added to each well, which was equilibrated for 60 minutes before read on a plate reader (Envision) for luminescence.

PIK3Cβ (p110β) = PIK3Cβ (p110β) (Homo sapiens (Human), UniProt P42338); experiment: PI3K biochemical potency assay (PI3Kβ)
Protocol: as §1

PIK3Cγ (pp110γ) = PIK3Cγ (pp110γ) (Homo sapiens (Human), UniProt P48736); experiment: PI3K biochemical potency assay (PI3Kγ)
Protocol: as §1

PIK3Cδ = PIK3Cδ (Homo sapiens (Human), UniProt O00329); experiment: PI3K biochemical potency assay (PI3Kδ)
Protocol: as §1

mTOR = mTOR (Homo sapiens (Human), UniProt P42345); experiment: mTOR biochemical potency assay
Protocol: Solution of mTOR enzymes (Millipore, Cat. No. 14-770, Lot. No. 2052551) was prepared in 1× kinase buffer at 4-fold of the final concentration (final concentration: 6 nM) in the assay. 2.5 μl of kinase solution was added to each well of the 384-well assay plate, which contains 2.5 μl of compounds with serially diluted concentration. 2× substrate solution was prepared with ULight-4E-BP1 (Thr37/46) Peptide (PE, Cat. No. TRF0128-M, Lot. No. 1695274) and ATP in 1× kinase reaction buffer at 2-fold of the final concentration of each reagent in the assay. 5 μl of substrate solution was added to each well of the assay plate to start reaction. The assay plate was incubated at room temperature for 30 minutes. Detection solution of kinase quench buffer (EDTA) and Eu-anti-phospho-4E-BP1 antibody (Thr37/46) (PE, Cat. No. TRF0216-M, Lot. No. 1571838) were prepared at 2-fold the desired final concentrations of each reagent in Lance detection buffer. 10 μl of detection solution buffer was added to each well of the assay plate. The assay plate was equilibrated for 60 minutes at room temperature before read on a plate reader (Lance signal (665 nm) from Envision program).

[1] = molecular target: ATM in SN38 treated HT-29 cells (Homo sapiens (Human), UniProt Q13315); experiment: ATM SN-38 HT-29 cellular potency assay
Protocol: Inhibition of ATM was evaluated in SN38 treated HT-29 cells (ATCC, Cat #HTB-38) by high-Content Imaging System
HT-29 cells were trypsinized and approximately 10,000 cells were seeded per well to 96-well microplates which were incubated overnight at 37° C. and 5% CO2. Test compounds were added to the 96-well plates which were incubated at 37° C. and 5% CO2 for 1 hour. […] After the plates were rinsed 3 times with PBSA, 50 μl permeabilization buffer (0.1% Triton-X 100 in PBSA) was added and the plates were incubated for 20 minutes at room temperature. After the plates were rinsed once with PBSA, 50 μl primary antibody solution was added and the plates were incubated in at 4° C. overnight. […] The plates were rinsed with PBST 3 times and then 100 μl PBSA were added per well. The plates were sealed with black plate seals.

ATR, sequence (Q13535 whole entry, looked up): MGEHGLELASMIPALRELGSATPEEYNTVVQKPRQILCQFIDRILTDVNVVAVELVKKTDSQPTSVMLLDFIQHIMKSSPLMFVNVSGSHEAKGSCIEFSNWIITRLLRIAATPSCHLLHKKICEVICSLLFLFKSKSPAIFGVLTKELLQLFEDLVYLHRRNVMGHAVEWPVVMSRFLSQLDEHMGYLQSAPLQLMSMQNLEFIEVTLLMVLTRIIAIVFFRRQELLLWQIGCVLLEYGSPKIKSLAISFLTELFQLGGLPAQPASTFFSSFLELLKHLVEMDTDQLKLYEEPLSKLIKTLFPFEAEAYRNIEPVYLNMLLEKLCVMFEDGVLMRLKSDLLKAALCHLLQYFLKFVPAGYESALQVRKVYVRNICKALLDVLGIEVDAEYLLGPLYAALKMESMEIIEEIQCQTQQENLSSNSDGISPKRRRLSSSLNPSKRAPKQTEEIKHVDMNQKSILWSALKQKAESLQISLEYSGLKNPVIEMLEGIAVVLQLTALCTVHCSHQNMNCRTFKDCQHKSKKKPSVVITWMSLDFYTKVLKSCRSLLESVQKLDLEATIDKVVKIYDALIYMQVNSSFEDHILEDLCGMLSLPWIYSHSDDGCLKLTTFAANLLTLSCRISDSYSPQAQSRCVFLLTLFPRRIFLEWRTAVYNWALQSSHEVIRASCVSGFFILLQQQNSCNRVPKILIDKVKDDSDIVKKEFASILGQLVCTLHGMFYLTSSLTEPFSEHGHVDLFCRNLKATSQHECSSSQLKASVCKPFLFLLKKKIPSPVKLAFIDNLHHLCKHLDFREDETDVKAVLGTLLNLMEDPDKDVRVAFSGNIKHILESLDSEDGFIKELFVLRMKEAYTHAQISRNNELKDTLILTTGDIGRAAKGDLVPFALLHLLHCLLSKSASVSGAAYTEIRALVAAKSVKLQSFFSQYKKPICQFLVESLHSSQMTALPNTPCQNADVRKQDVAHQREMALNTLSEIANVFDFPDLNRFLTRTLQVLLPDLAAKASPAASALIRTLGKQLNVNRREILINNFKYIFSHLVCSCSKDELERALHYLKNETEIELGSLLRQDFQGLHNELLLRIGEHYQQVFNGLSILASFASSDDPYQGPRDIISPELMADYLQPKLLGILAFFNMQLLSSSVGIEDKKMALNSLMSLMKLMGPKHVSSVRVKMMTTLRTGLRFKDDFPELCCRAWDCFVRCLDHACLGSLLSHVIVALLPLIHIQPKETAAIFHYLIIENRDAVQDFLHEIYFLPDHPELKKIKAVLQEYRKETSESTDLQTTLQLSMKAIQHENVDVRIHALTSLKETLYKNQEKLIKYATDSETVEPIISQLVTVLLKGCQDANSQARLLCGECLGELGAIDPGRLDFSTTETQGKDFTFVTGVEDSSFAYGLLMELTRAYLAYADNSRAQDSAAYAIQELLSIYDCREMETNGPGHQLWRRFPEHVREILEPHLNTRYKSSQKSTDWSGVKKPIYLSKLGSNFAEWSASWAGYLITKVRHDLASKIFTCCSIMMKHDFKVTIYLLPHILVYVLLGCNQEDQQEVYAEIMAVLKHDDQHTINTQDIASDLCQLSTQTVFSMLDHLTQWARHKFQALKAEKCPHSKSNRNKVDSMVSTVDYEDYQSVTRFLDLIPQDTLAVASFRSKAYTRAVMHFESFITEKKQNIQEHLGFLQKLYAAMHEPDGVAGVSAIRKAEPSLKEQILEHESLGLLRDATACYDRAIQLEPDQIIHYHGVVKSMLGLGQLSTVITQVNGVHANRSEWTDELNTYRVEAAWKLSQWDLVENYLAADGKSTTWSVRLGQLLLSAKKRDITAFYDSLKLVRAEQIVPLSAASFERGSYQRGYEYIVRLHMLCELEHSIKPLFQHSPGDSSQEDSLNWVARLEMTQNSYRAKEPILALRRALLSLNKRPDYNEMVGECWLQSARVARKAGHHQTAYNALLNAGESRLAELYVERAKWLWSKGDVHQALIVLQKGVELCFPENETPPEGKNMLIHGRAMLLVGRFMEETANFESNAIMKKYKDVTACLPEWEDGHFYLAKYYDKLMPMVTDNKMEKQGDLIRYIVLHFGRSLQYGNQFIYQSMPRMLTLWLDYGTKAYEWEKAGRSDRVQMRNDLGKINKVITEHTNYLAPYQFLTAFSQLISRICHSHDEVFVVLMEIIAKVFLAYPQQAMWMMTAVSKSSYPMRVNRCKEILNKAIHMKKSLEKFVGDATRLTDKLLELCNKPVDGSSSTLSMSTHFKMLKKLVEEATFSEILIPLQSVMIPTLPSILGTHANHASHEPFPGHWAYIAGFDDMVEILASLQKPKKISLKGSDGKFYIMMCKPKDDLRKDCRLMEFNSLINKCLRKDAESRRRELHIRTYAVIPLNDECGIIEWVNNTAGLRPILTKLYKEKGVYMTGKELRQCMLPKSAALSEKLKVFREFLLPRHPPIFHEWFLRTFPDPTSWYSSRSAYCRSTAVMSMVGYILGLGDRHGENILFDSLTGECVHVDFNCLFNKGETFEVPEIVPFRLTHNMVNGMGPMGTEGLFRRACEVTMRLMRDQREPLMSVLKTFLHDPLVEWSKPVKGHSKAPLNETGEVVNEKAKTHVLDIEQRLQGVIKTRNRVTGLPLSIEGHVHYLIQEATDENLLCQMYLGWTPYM
ATR, sequence (Q8WXE1 whole entry partner, looked up): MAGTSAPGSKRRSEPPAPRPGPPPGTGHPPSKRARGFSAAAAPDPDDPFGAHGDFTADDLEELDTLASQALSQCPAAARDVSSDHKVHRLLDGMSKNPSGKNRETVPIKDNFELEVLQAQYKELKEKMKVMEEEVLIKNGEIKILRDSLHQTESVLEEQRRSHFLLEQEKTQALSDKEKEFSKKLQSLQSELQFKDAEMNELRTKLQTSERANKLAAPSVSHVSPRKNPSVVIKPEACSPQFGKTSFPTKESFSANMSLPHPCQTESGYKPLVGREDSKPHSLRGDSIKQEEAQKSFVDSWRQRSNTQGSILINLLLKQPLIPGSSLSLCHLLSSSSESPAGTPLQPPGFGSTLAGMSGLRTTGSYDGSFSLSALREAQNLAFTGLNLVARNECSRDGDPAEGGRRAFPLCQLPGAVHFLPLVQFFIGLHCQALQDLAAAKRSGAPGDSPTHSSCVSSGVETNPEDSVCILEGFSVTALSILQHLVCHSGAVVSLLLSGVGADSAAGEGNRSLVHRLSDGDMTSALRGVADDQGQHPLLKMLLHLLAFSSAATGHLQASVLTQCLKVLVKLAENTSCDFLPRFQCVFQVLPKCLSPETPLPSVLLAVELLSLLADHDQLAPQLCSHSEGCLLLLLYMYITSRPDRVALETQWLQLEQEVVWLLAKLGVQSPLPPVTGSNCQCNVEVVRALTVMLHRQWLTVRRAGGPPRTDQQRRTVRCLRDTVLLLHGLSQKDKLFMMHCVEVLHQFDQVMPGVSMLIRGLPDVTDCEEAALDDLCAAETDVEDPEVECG
PIK3Cγ (pp110γ), sequence (P48736 whole entry): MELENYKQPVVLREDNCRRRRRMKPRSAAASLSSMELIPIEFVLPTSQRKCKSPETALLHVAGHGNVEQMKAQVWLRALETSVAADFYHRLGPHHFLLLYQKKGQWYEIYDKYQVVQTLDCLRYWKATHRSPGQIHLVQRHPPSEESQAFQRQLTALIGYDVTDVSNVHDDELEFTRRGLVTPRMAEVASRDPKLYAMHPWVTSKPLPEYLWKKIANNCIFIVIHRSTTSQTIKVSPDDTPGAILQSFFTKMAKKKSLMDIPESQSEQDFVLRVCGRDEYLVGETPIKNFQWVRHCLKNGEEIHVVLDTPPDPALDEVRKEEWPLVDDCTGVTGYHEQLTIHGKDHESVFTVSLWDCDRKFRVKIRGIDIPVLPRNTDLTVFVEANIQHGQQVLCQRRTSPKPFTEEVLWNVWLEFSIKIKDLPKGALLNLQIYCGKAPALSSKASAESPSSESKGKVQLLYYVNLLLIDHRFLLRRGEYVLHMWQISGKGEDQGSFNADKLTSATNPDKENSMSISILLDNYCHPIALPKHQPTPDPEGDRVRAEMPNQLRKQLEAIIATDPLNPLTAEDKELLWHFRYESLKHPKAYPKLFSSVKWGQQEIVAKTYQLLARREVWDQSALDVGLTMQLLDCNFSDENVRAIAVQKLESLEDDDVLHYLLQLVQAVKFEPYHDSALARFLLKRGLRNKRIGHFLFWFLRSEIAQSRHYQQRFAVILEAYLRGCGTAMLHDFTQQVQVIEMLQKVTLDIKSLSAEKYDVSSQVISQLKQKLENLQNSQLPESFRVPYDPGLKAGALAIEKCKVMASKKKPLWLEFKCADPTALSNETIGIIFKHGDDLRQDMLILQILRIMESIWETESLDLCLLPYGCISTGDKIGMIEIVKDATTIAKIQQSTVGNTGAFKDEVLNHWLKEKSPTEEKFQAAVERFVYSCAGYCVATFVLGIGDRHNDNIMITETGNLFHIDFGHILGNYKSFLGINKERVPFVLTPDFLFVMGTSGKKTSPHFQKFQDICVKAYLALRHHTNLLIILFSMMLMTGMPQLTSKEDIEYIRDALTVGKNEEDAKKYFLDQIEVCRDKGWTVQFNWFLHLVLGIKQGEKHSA

IC50 (ATM) [µM]	IC50 (ATR) [µM]	IC50 (PI3Kα (p110α/p85a)) [µM]	IC50 (PIK3Cβ (p110β)) [µM]	IC50 (PIK3Cγ (pp110γ)) [µM]	IC50 (PIK3Cδ) [µM]	IC50 (mTOR) [µM]	IC50 [1] [µM]	Compound
0.0019	> 10	> 10	> 10	> 10	> 10	> 10	0.0015	CC(C)n1c(=O)n(C)c2nnc3cc(F)c(-c4ccc(OCCCN5CCCCC5)nc4)cc3c21 [Example 1, 7-fluoro-1-isopropyl-3-methyl-8-(6-(3-(piperidin-1-yl)propoxy)pyridin-3-yl)-1H-imidazo[4,5-c]cinnolin-2(3H)-one]
0.0043	> 10	> 10	> 10	> 10	> 10	> 10	0.27	CC(C)n1c(=O)n(C)c2nnc3cc(F)c(-c4ccc(OCCCN(C)C)nc4)cc3c21 [Example 2, 8-(6-(3-(dimethylamino)propoxy)pyridin-3-yl)-7-fluoro-1-isopropyl-3-methyl-1H-imidazo[4,5-c]cinnolin-2(3H)-one]
0.01	> 10	> 10	> 10	> 10	> 10	> 10		CC(C)n1c(=O)n(C)c2nnc3cc(F)c(-c4ccc(N5CCC(N(C)C)CC5)nc4)cc3c21 [Example 4, 8-(6-(4-(dimethylamino)piperidin-1-yl)pyridin-3-yl)-7-fluoro-1-isopropyl-3-methyl-1H-imidazo[4,5-c]cinnolin-2(3H)-one]
0.065	> 10	> 10	> 10	> 10	> 10	> 10		CC(C)n1c(=O)n(C)c2nnc3cc(F)c(-c4ccc(N5CCC(CN(C)C)C5)nc4)cc3c21 (centres unmarked) [Example 5, 8-(6-(3-((dimethylamino)methyl)pyrrolidin-1-yl)pyridin-3-yl)-7-fluoro-1-isopropyl-3-methyl-1H-imidazo[4,5-c]cinnolin-2(3H)-one]
0.1	> 10	> 10	> 10	> 10	> 10	> 10	0.071	CC(C)n1c(=O)n(C)c2nnc3cc(F)c(-c4ccc(COCCN(C)C)nc4)cc3c21 [Example 6, 8-(6-((2-(dimethylamino)ethoxy)methyl)pyridin-3-yl)-7-fluoro-1-isopropyl-3-methyl-1H-imidazo[4,5-c]cinnolin-2(3H)-one]
0.051	> 10	> 10	> 10	> 10	> 10	> 10		CC(C)n1c(=O)n(C)c2nnc3cc(F)c(-c4ccc(COCCN5CCCC5)nc4)cc3c21 [Example 8, 7-fluoro-1-isopropyl-3-methyl-8-(6-((2-(pyrrolidin-1-yl)ethoxy)methyl)pyridin-3-yl)-1H-imidazo[4,5-c]cinnolin-2(3H)-one]
0.035	> 10	> 10	> 10	> 10	> 10	> 10		CC(C)n1c(=O)n(C)c2nnc3cc(F)c(-c4ccc(COCCN5CC[C@@H](F)C5)nc4)cc3c21 [Example 9, (R)-7-fluoro-8-(6-((2-(3-fluoropyrrolidin-1-yl)ethoxy)methyl)pyridin-3-yl)-1-isopropyl-3-methyl-1H-imidazo[4,5-c]cinnolin-2(3H)-one]
0.363	> 10	> 10	> 10	> 10	> 10	> 10		CC(C)n1c(=O)n(C)c2nnc3cc(F)c(-c4ccc(C(=O)NCCN(C)C)nc4)cc3c21 [Example 12, N-(2-(dimethylamino)ethyl)-5-(7-fluoro-1-isopropyl-3-methyl-2-oxo-2,3-dihydro-1H-imidazo[4,5-c]cinnolin-8-yl)picolinamide]
0.007								CC(C)n1c(=O)n(C)c2nnc3cc(F)c(-c4ccc(OCCCN(C)C)nc4F)cc3c21 [Example 17, 8-(6-(3-(dimethylamino)propoxy)-2-fluoropyridin-3-yl)-7-fluoro-1-isopropyl-3-methyl-1,3-dihydro-2H-imidazo[4,5-c]cinnolin-2-one]
0.0048								Cn1c(=O)n(C2CCOCC2)c2c3cc(-c4ccc(OCCCN5CCCCC5)nc4)c(F)cc3nnc21 [Example 18, 7-fluoro-3-methyl-8-(6-(3-(piperidin-1-yl)propoxy)pyridin-3-yl)-1-(tetrahydro-2H-pyran-4-yl)-1H-imidazo[4,5-c]cinnolin-2(3H)-one]
0.013								CN(C)CCCOc1ccc(-c2cc3c(cc2F)nnc2c3n(C3CCOCC3)c(=O)n2C)cn1 [Example 19, 8-(6-(3-(dimethylamino)propoxy)pyridin-3-yl)-7-fluoro-3-methyl-1-(tetrahydro-2H-pyran-4-yl)-1H-imidazo[4,5-c]cinnolin-2(3H)-one]
0.006								Cn1c(=O)n(C2CCOCC2)c2c3cc(-c4ccc(OCCCN5CCCC5)nc4)c(F)cc3nnc21 [Example 20, 7-fluoro-3-methyl-8-(6-(3-(pyrrolidin-1-yl)propoxy)pyridin-3-yl)-1-(tetrahydro-2H-pyran-4-yl)-1H-imidazo[4,5-c]cinnolin-2(3H)-one]
0.097								CN(C)CC1CCN(c2ccc(-c3cc4c(cc3F)nnc3c4n(C4CCOCC4)c(=O)n3C)cn2)C1 (centres unmarked) [Example 21, 8-(6-(3-((dimethylamino)methyl)pyrrolidin-1-yl)pyridin-3-yl)-7-fluoro-3-methyl-1-(tetrahydro-2H-pyran-4-yl)-1H-imidazo[4,5-c]cinnolin-2(3H)-one]
> 1								Cn1c(=O)n(C2CCOCC2)c2c3cc(-c4ccc(OCCCN5CCC(F)CC5)nc4)c(F)cc3nnc21 [Example 24, 7-fluoro-8-(6-(3-(4-fluoropiperidin-1-yl)propoxy)pyridin-3-yl)-3-methyl-1-(tetrahydro-2H-pyran-4-yl)-1H-imidazo[4,5-c]cinnolin-2(3H)-one]
> 1								Cn1c(=O)n(C2CCOCC2)c2c3cc(-c4ccc(OCCCN5CC[C@@H](F)C5)nc4)c(F)cc3nnc21 [Example 25, (R)-7-fluoro-8-(6-(3-(3-fluoropyrrolidin-1-yl)propoxy)pyridin-3-yl)-3-methyl-1-(tetrahydro-2H-pyran-4-yl)-1H-imidazo[4,5-c]cinnolin-2(3H)-one]

Compound	IC50 (ATM) [µM]	IC50 (ATR) [µM]	IC50 (PI3Kα (p110α/p85a)) [µM]	IC50 (PIK3Cβ (p110β)) [µM]	IC50 (PIK3Cγ (pp110γ)) [µM]	IC50 (PIK3Cδ) [µM]	IC50 (mTOR) [µM]	IC50 [1] [µM]
CC(C)n1c(=O)n(C)c2nnc3cc(F)c(-c4ccc(OCCCN5CCCC5)nc4)cc3c21 [Example 3, 7-fluoro-1-isopropyl-3-methyl-8-(6-(3-(pyrrolidin-1-yl)propoxy)pyridin-3-yl)-1H-imidazo[4,5-c]cinnolin-2(3H)-one]	0.0048	> 10	> 10	> 10	> 10	> 10	> 10	0.011
CC(C)n1c(=O)n(C)c2nnc3cc(F)c(-c4ccc(COCCN5CCC(F)CC5)nc4)cc3c21 [Example 10, 7-fluoro-8-(6-((2-(4-fluoropiperidin-1-yl)ethoxy)methyl)pyridin-3-yl)-1-isopropyl-3-methyl-1H-imidazo[4,5-c]cinnolin-2(3H)-one]		> 10	> 10	> 10	> 10	> 10	> 10	
